A melting point compilation (Tetko et al.; mined from patent text by program, amines drawn as free bases though some values may be those of a salt)

Row | melting point | SMILES
1 | 87 to 89 °C | CCCCOC1OC(CO)C(O)C(O)C1(O)N(CC)C(=O)N(CCCl)N=O (stereo unspecified)
2 | 159 to 160 °C | Cc1sc(-c2ccccc2)nc1CCOc1cc(COc2ccccc2CC(=O)O)on1
3 | 150 to 151 °C | COc1ccc(C(=O)NCCCCCCCCCCCNC(=O)c2ccc(OC)cc2)cc1
4 | 65 to 67 °C | CCOC(=O)COc1cc2cc(C3CCCC3)sc2c(Cl)c1Cl
5 | 145 to 147 °C | COc1cc(C(C)C)ccc1C1(NC(=O)C2CC2)C(=O)c2ccccc2C1=O
6 | 145 to 146 °C | C/C(=C\Cn1oc(=O)[nH]c1=O)c1cccc(OCc2nc(-c3ccc(OC(F)(F)F)cc3)oc2C)c1
7 | 114 to 116 °C | O=C1CCN(C(=O)Cl)c2ccc(Cl)cc21
8 | 260 °C | NS(=O)(=O)c1cccc(-c2cn(-c3nc(-c4ccc(F)cc4)cc(C(F)(F)F)n3)cn2)c1
9 | 112 °C | Cc1c(C(F)(F)F)cnn(-c2cc(OCCC3OCCCO3)c(Cl)cc2F)c1=O
10 | 96 °C | CCCCNc1nc2ccccc2n2ncc(C(=O)OCC)c12
11 | > 200 °C | COc1cc2c(cc1C(F)(F)F)N(C(=O)Nc1csc(-c3cccnc3)n1)CC2
12 | 75 to 76 °C | Cc1cccc(N2CCN(C(=O)CCCCCCC(=O)NO)CC2C)c1 (stereo unspecified)
13 | 261 to 263 °C | CN(Cc1ccc(NC(=O)C2=Cc3cc(-c4ccc(OC(F)(F)F)cc4)ccc3S(=O)(=O)CC2)cc1)C1CCOCC1
14 | 111 to 114 °C | CC(C)(C)NCC(O)COc1ccc(C(N)=O)cc1I (stereo unspecified)
15 | 188 to 190 °C | CC(C)(C)NC(=O)CC(Cc1cccc2ccccc12)C(=O)O (stereo unspecified)
16 | 172 to 175 °C | N#Cc1cn(-c2ccc([N+](=O)[O-])cc2)nc1[N+](=O)[O-]
17 | 156 to 157 °C | O=C(NC1CCc2ccccc21)c1ccc2cnccc2n1 (stereo unspecified)
18 | 129 to 131 °C | CC(=O)Nn1cc(-c2cccnc2)nc1Cl
19 | 90 to 92 °C | FC(F)Sc1nnc(-c2ccccn2)s1
20 | 231 to 233 °C | CC1CC(=O)NN=C1c1ccc2c(c1)N(CC(=O)N1CCN(CCO)CC1)CS2=O (stereo unspecified)
21 | 75 to 77 °C | COc1ccccc1NC1CN(C(c2ccccc2)c2ccccc2)C1
22 | 99 °C | CCc1nc2c(o1)C(=O)C=CC2=O
23 | 157 to 158 °C | CC1CCCN1Cc1ccc(N/C=C2\C(=O)NC(=O)c3ccc(I)cc32)cc1 (stereo unspecified)

Row | melting point | SMILES
24 | 171 to 172 °C | CC(=O)N1CN(C(=O)c2c(F)cccc2F)C(=O)N(c2ccc(Cl)cc2)C1
25 | 138 to 144 °C | COc1cccc2c1SCC(C(=O)O)C2 (stereo unspecified)
26 | 186 to 188 °C | Cc1ccc(C(=O)NC(NC(=NC#N)Nc2cncnc2)C(Cl)(Cl)Cl)cc1 (stereo unspecified)
27 | 166 to 167 °C | CC(C)CC(=O)Nc1cccc(-c2ccnc3c(-c4cccc(C#N)c4)cnn23)c1
28 | 100 to 108 °C | O=c1c([N+](=O)[O-])c[nH]n1-c1c(Cl)cc(C(F)(F)F)cc1Cl
29 | 291 °C | CCC(=O)Nc1ccc2c(c1)C(=O)c1cc(NC(=O)CC)ccc1C2=O
30 | 86 to 87 °C | OCCOCCNc1ncncc1Cc1ccccc1
31 | 208 to 211 °C | O=C1c2ccccc2C(=O)c2cc(S(=O)(=O)O)ccc21
32 | 230 to 233 °C | NC(=O)C1CCN(c2cc(-c3ccccc3)nc3ccc(F)cc23)CC1
33 | 57 °C | Cc1cc(C#N)nc(Cl)n1
34 | 146 to 148 °C | Cc1nc2ccc(S(=O)(=O)n3c(COC(C)C(=O)O)cc4cc(C(F)(F)F)ccc43)cc2s1 (stereo unspecified)
35 | 219 to 221 °C | O=C1c2ccccc2C(Cc2ccnc(F)c2)(Cc2ccnc(F)c2)c2cc(O)ccc21
36 | 152 to 153 °C | Cc1nc(-c2ccccc2)nc(-c2ccncc2)c1C
37 | 248 to 253 °C | Cc1cc(-c2ccc(C#N)cc2)sc1C(=O)O
38 | 187 to 188 °C | c1ccc(-c2[nH]c3cc4c(cc3c2-c2ccccc2)OCO4)cc1
39 | 135 to 136 °C | O=C(O)CCc1[nH]nc2c1CCCC2
40 | 111 to 112 °C | CCOC(=O)N(C)C(=O)N(O)C(C)c1cc(C)sc1C (stereo unspecified)
41 | 71 to 73 °C | CCCNC(=S)n1nc(Oc2c(Cl)cc(C(F)(F)F)cc2Cl)cc1C
42 | 164 to 165 °C | CCOC(=O)Cc1ccc(NC(=O)C(COc2cccc(Cl)c2)NS(=O)(=O)c2ccc(F)cc2)cc1 (racemic)
43 | 204 °C | CN(c1cccc2cc(C3=NCC(CN4CCS(=O)CC4)S3)[nH]c12)S(=O)(=O)c1cccs1 (stereo unspecified)
44 | > 250 °C | O=C(Nc1ccncc1)c1n[nH]c2ccc(-c3cncc4ccccc34)cc12
45 | 107 to 109 °C | CNC(=O)CC1CN=C(c2cc3cc(Oc4ccc(S(C)(=O)=O)nc4)cc(OC(C)COC)c3[nH]2)S1 (stereo unspecified)
46 | 121 to 123 °C | O=C(NCc1ccccc1)C1=C(C(=O)Nc2ccc(Cl)cc2F)CCCC1

Row | melting point | SMILES
47 | 251 to 255 °C | Cc1ccc([N+](=O)[O-])c2[nH]cc(CO)c(=O)c12
48 | 106 to 107 °C | O=c1n(CCC#Cc2cccc(CF)n2)nc2ccccn12
49 | 46 to 47 °C | CCOC(=O)c1nc(C(C)(C)C)nc2ccccc12
50 | 117 to 118 °C | CN1CCC(Nc2ccccc2C(=N)c2ccccc2)CC1
51 | 60 to 61 °C | C=CCOC(=O)Nc1cc(-c2cccc(Cl)c2)sc1C(C)(C)O
52 | 125 to 128 °C | COc1cc(C)ccc1-c1nc(C)c(-c2cccnc2)[nH]1
53 | 118 °C | CCCn1cc(C2(c3cccc(-c4cccnc4F)c3)N=C(N)N(C)C2=O)cc1C(=O)CC (stereo unspecified)
54 | 229 °C | COc1cc(Cc2cnc(N)nc2N)c2c(c1OC)OC(C1CC1)C=C2 (stereo unspecified)
55 | > 300 °C | COC(=O)Oc1nc2c(N)ncnc2n1Cc1ccccc1
56 | 165 °C | Cc1nc(C)c(C(=O)NC(C)c2ccccc2)cc1CCl (stereo unspecified)
57 | 95 to 97 °C | CC(=O)N1CCc2ccc(S(=O)(=O)n3c(CCCC(=O)O)cc4cc(Cl)ccc43)cc2C1
58 | 123 to 125 °C | COc1ccc2c(c1)c(Cc1cc(=O)n(-c3ccc(Cl)c(Cl)c3)[nH]1)c(C)n2C(=O)c1ccc(Cl)cc1
59 | 120 to 121 °C | CCN(CC)CCCNC(=S)N(CCS(=O)(=O)c1ccccc1)C(C)C
60 | 198 to 199 °C | CCC(CC)CNC(=O)c1ccc2cccc(Cc3ccc(C(=O)O)cc3OC)c2c1
61 | 272 to 275 °C | CCCC(C(=O)O)n1c(=O)c(=O)[nH]c2ccccc21 (stereo unspecified)
62 | 96 to 97 °C | COC(=O)/C=C(/OC)c1cccc2ccc(Br)cc12
63 | 274 to 277 °C | CC1(C)CCC(C)(C)c2cc(C(=O)NNC(=O)c3ccc(C#N)cc3)ccc21
64 | 195 to 197 °C | CC(C)=NOCc1nc2c(N)nc3cccnc3c2n1CCCNC(=O)C(C)C
65 | 57 to 58 °C | OCCCc1cccc(OCc2coc(/C=C/c3ccccc3)n2)c1
66 | 103 to 105 °C | CC(C)CCSc1cccc(-c2nc(=O)c3ccccc3s2)n1
67 | 218 to 220 °C | O=C(Nc1cc2ccccc2cn1)c1cncnc1NCc1ccncc1
68 | 96 to 97 °C | CCCC(C)SC1NN=C(c2ccncc2)N1c1ccccc1 (stereo unspecified)
69 | 97.5 to 99 °C | O=c1c2ccccc2ccc2ccc(I)cc12

Row | melting point | SMILES
70 | 104 to 105 °C | COc1cccc(C(=O)NCCNC(=O)OC(C)(C)C)n1
71 | 194 °C | CS(=O)(=O)c1c(C(=O)O)ccc(F)c1F
72 | 48 to 50 °C | COC1=C(OC)C(=O)C(N=[N+]=[N-])=C(C)C1=O
73 | 132 to 133 °C | CCCCc1cccc2[nH]c(C(=O)OCC)cc(=O)c12
74 | 181 to 184 °C | Cc1ccc(C)c(Sc2ccc(C#N)cc2S(=O)(=O)N2CCOCC2)c1
75 | 106 °C | CON=C(C(=O)OC)c1cccs1
76 | 168 °C | CC(=CC(=O)c1cccnc1)NCC(O)COc1ccc(NC(=O)NC2CCCCC2)cc1 (stereo unspecified)
77 | 264 to 265 °C | Cc1cc(Nc2cccc(O)c2)c2c(cnn2C)n1
78 | 173 to 175 °C | CC(C)(C)OC(=O)N1CCN(c2cccc3ccc(-n4nnc5ncccc54)cc23)CC1
79 | > 250 °C | O=C1N(Cc2ccccn2)c2ccc(Br)cc2C12COc1cc3c(cc12)OCCO3 (stereo unspecified)
80 | 99 to 101 °C | CCN(C(=O)C1(C(=O)O)CC1)c1ccc(Cl)cc1
81 | 158 to 161 °C | Nc1nc(OCCc2ccccc2Cl)nc2c1ncn2C1OC(CO)C(O)C1O (stereo unspecified)
82 | 248 to 250 °C | CCn1ncc2c1ncc1c(N)nc3cc(C)nn3c12
83 | 145 to 147 °C | CC1(C)COc2cc3c(cc21)C1(CO3)CN(Cc2ccccn2)c2ccccc21 (stereo unspecified)
84 | 85 to 87 °C | Cc1nccc(OCc2ccccc2)c1OCc1ccccc1
85 | 201 to 202 °C | CC(C(O)c1cc(F)c(OCc2ccccc2)c(F)c1)N1CCC(O)(c2ccc(C(F)(F)F)cc2)CC1 (stereo unspecified)
86 | 107 to 108 °C | COc1ccc(CC(=O)O)c(OCCc2ccccc2)c1
87 | 87 to 88 °C | CCCc1c(OCCCOc2ccc(C(=O)OCC)cc2F)ccc(C(C)=O)c1O
88 | 151 to 153 °C | Cc1nc(N(C)C)nc(N)c1-c1cc(Cl)cc(Cl)c1Cl
89 | 298 to 300 °C | CCOC(=O)c1cc2c(cn1)[nH]c1cccc(Oc3ccc([N+](=O)[O-])cn3)c12
90 | 62 °C | CC(C)[C@@H]1COC(=O)N1C(=O)CCc1ccccc1
91 | 107 to 109 °C | O=C(O)CCC/C=C/c1ccc(-c2ccccc2)cc1
92 | 181 to 183 °C | O=P(O)(O)C(F)(F)c1ccc(CN(Cc2ccc(C(F)(F)P(=O)(O)O)cc2)S(=O)(=O)CCc2ccccc2)cc1

Row | SMILES | melting point
93 | Cc1cc(C(N)=O)ncc1C(c1c(F)ccc(F)c1F)S(=O)(=O)CCC(F)(F)F (stereo unspecified) | 190 to 191 °C
94 | COC(=O)c1ccc2c(c1)C(SCCO)c1ccccc1CO2 (stereo unspecified) | 128 to 130 °C
95 | CN1CC[C@]2(c3cccc(O)c3)CC(=O)CC[C@@H]2C1 (relative stereo) | 175 °C
96 | C#Cc1ncn2c1CN(C)C(=O)c1ccccc1-2 | 191 to 193 °C
97 | ON=C1CN2[C@H]3CC[C@@H]2[C@@H]1[C@@H](c1ccc(Cl)c(Cl)c1)C3 | 45 to 52 °C
98 | CCC1C(C)=NN=C(c2ccccc2Cl)c2cc(OC)c(OC)cc21 (stereo unspecified) | 129 to 131 °C
99 | Cc1nc2cc(C(=O)NC3CC3)c(NC(=O)c3cc(C(F)(F)F)nn3-c3ncccc3Cl)c(Cl)c2n1C | 233 to 235 °C
100 | Cn1nnnc1Cn1nnnc1Cl | 138 to 140 °C
101 | OC1(c2ccc(-c3ccccc3)cc2)CN2CCC1CC2 (stereo unspecified) | 165 to 166 °C
